Test results reported in patent US20080113073A1, “Hydroxydeoxybenzoins And The Use Thereof to Mask A Bitter Taste” (SYMRISE GMBH & CO. KG, priority 2005, published 2008).

Tests used:
[1] = tested on: bitter impression of a caffeine solution; test: Bitter reduction of a caffeine solution, rated by a group of experts (0 not bitter to 10 extremely bitter); assay type: in vivo; conditions: for Bitter impression (1-10) with: 500 ppm caffeine plus 100 ppm substance, 95% confidence intervals given as error; for % reduction in the bitter impression: 500 ppm caffeine, 100 ppm substance, calculated from average ratings without/with substance
Description: In order to quantify the reduction in the bitter impression, the bitterness of a caffeine solution comprising 500 ppm and of a sample comprising 500 ppm of caffeine and a variable amount of the compound of the example was determined by a group of experts (rating 0 [not bitter] to 10 [extremely bitter]). The evaluation was carried out by calculating the reduction (in %) in the bitter impression from the average values of the assessments of the caffeine solution or the solutions containing caffeine and compound of the example. 2,4-Dihydroxybenzoic acid (2,4-DHB) was used as comparison in accordance with U.S. Pat. No. 5,643,941.

[2] = tested on: taste of caffeine; conditions: in vivo; cited from earlier work
[3] = tested on: taste; conditions: studied within the context of various sweeteners; cited from earlier work
[4] = tested on: sweetness impression of sugared low-fat yoghurt; test: Sweetness enhancement in low-fat yoghurt with 5% sugar, coded tasting by 16 testers (scale 0 to 10); assay type: in vivo
Source text: 5% sugar was stirred into a commercially available natural yoghurt (without additives) having a fat content of 0.1% (sample 1). 200 ppm of compound 2 (Example 2), which had previously been dissolved in a minimal amount of ethanol, were additionally incorporated into a sample 2. Samples 1 and 2 were presented in coded form, in a different but predetermined order, to 16 testers for tasting. The testers had to note the sweetness impression on a scale of from 0 (not present) to 10 (extreme sweetness). In addition, the testers were to note other taste impressions.

[5] = tested on: sweet impression of a sucrose solution; test: Enhancement of the sweet impression of a sucrose solution, rated by a group of experts (0 not sweet to 10 extremely sweet); assay type: in vivo
Description: In order to quantify the enhancement of the sweet impression, the sweetness of a sucrose solution comprising 5% and of a sample comprising 5% sucrose and an amount of compound 2 was determined by a group of experts (rating 0 [not sweet] to 10 [extremely sweet]). The evaluation was carried out by calculating the […] (in %) in the sweet impression from the average values of the assessments of the sucrose solution or of the solution comprising sucrose and compound 2.

O=C(O)c1ccc(O)cc1O [2,4-DHB, 2,4-Dihydroxybenzoic acid, reference compound]
Bitter impression (1-10) with [1]: 5.0 ± 1.0
% reduction in the bitter impression [1]: 3%

O=C([O-])c1ccc(O)cc1O.[K+] [2,4-Dihydroxybenzoic acid potassium salt]
ability to suppress the taste of caffeine [2]: not able to suppress the taste of caffeine

COc1ccc(CC(=O)c2c(O)cc(O)cc2O)cc1O [2-(3-hydroxy-4-methoxyphenyl)-1-(2,4,6-trihydroxyphenyl)ethanone]
taste of the compound itself [3]: tasteless

COc1cc(CC(=O)c2c(O)cc(O)cc2O)ccc1O [Compound 1, 2-(4-Hydroxy-3-methoxyphenyl)-1-(2,4,6-trihydroxyphenyl)-ethanone]
Bitter impression (1-10) with [1]: 3.8 ± 0.9
% reduction in the bitter impression [1]: 23%

COc1cc(CC(=O)c2ccc(O)cc2O)ccc1O [Compound 2, 1-(2,4-Dihydroxyphenyl)-2-(4-hydroxy-3-methoxyphenyl)-ethanone]
Bitter impression (1-10) with [1]: 4.3 ± 0.8
% reduction in the bitter impression [1]: 10%
number of testers who found the sample with compound sweeter ([4]; of 16 testers, 4 found sample 1 sweeter, 2 found both equally sweet): 10
further taste impression noted ([4]; sample 2 (200 ppm compound)): sticky
preference of testers ([4]; sample 2 (200 ppm compound) versus sample 1): preferred to sample 1 by the majority of testers
enhancement of the sweetness impression ([4]; sample 2 (200 ppm compound) versus sample 1 in yoghurt with 5% sugar): 18%
average sweetness impression rating (0 to 10) ([4]; sample 2: yoghurt 0.1% fat, 5% sugar, 200 ppm compound, sample 1 without compound rated 4.1): 4.9
Sweet impresssion (1-10) with ([5]; 5% sucrose plus 100 ppm substance, standard deviations given as error): 5.9 ± 1.5
% enhancement of the sweet impression ([5]; 5% sucrose, 100 ppm substance, calculated from average ratings): 18%
